The record followed here is patent publication US20240197713A1, “LFA-1 ANTAGONISTS FOR TREATING INFLAMMATORY BOWEL DIESEASE” (VivaVision Biotech, Inc, priority 2022, published 2024).

This experiment relates to oxazolone-induced colitis mice. Put plainly: Oxazolone-induced acute colitis in mice for ulcerative colitis. It counts as in vivo, Balb/c mice. As to conditions: compound 1 5 mg/kg, tofacitinib 10 mg/kg; for bodyweight loss (bodyweight change, FIG. 1): PO BID 5 days (Days 4 to 8 after sensitization) in 0.5% CMC-Na; for DAI score (disease activity index, FIG. 2): PO BID 5 days, scored per Table 2; for colon density (FIG. 5) / colon length (FIG. 4) / colon weight (FIG. 3): colon collected Day 9, PO BID 5 days. How it is done: Compound 1 (i.e., lifitegrast) was evaluated in an oxazolone-induced colitis murine model, along with tofacitinib. Boirivant et al., J. Exp. Med. 1998, 188, 1929-39. Balb/c mice were randomly divided into 4 groups according to Table 1: 2 treatment groups (Treatment Groups), 1 vehicle group (Vehicle Group), and 1 sham group (Sham Group). The mice in Treatment and Vehicle Groups were sensitized with 200 μL of 2% oxazolone in acetone and olive oil (1:4), followed by injection of 100 μL of 1.5% oxazolone into the rectum of each mouse on Day 5 after sensitization. The mice in Sham Group were sensitized with 200 μL of a mixture of acetone and olive oil (1:4) without oxazolone, followed by injection of 100 μL of 50% ethanol/water into the rectum of each mouse on Day 5 after sensitization. Before the injection into the rectum, each mouse was anesthetized intraperitoneally with tribromoethanol (0.3 mL, 1.25%). From Days 4 to 8 after sensitization, the mice in Sham Group and Vehicle Group were each given 0.5% CMC-Na by gavage, and the mice in Treatment Groups were each given by gavage tofacitinib or compound 1 in 0.5% CMC-Na, respectively, according to the dosing schedule shown in Table 1.
The bodyweight of each mouse was measured daily. From Day 4 after sensitization, the fecal property and occult blood as determined with a fecal occult blood test (FOBT) of each mouse were measured daily to calculate a disease activity index (DAI) according to Table 2.
On Day 9 after sensitization, each mouse was euthanized and blood was collected from the heart. A serum was prepared and frozen for the determination of inflammatory factors.
The colon of each mouse was collected and photographed, and the colon length was measured and weighed after the removal of the content of the colon. A part of each colon collected was fixed using the Swiss roll technique in neutral paraformaldehyde for pathological scoring (Table 3) as described in Bialkowska et al., J. Vis. Exp. 2016, 113, e54161. The rest of the colon mucosa of each mouse was scraped and frozen for the determination of inflammatory factors.

With `CS(=O)(=O)c1cccc(C[C@H](NC(=O)c2c(Cl)cc3c(c2Cl)CCN(C(=O)c2ccc4ccoc4c2)C3)C(=O)O)c1` [compound 1, (S)-2-(2-(benzofuran-6-carbonyl)-5,7-dichloro-1,2,3,4-tetrahydroisoquinoline-6-carboxamido)-3-(3-(methylsulfonyl)phenyl)propanoic acid], the “bodyweight loss (bodyweight change, FIG. 1)” value is “slowed the bodyweight loss”; the “DAI score (disease activity index, FIG. 2)” value is “improved the DAI score”; the “colon density (FIG. 5)” value is recorded as “able to reverse the disease effects”; the “colon length (FIG. 4)” value is on record as “able to reverse the disease effects”. Besides, the “colon weight (FIG. 3)” value is “able to reverse the disease effects”.

As for `C[C@@H]1CCN(C(=O)CC#N)C[C@@H]1N(C)c1ncnc2[nH]ccc12` [tofacitinib], the “bodyweight loss (bodyweight change, FIG. 1)” value is recorded as “slowed the bodyweight loss”; the “DAI score (disease activity index, FIG. 2)” value is recorded as “improved the DAI score”; the “colon density (FIG. 5)” value is on record as “able to reverse the disease effects”; the “colon length (FIG. 4)” value is “able to reverse the disease effects”. Moreover, the “colon weight (FIG. 3)” value is recorded as “able to reverse the disease effects”.
